In general, IC50 refers to the concentration at which inhibition is half-maximal.

Some results are limits rather than exact numbers.

The target in the first experiment is T1, ENT2 (Homo sapiens, UniProt Q14542).
T1 sequence (Q14542 1-456): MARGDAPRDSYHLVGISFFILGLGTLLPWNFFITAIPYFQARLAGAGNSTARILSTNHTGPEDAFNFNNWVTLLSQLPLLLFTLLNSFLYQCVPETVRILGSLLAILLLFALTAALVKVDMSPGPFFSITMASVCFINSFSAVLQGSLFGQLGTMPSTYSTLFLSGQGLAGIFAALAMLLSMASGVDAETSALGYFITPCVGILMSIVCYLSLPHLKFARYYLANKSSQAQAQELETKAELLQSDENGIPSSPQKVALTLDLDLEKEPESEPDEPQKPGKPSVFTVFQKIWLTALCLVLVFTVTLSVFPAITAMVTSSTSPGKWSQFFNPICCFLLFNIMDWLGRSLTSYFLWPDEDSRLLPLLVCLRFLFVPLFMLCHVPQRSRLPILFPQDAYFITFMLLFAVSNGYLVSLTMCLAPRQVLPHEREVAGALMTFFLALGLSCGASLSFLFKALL
Experiment: not given
Conditions: ENT2 inhibited only by high concentration of NBMPR; cited from earlier work.
Take `O=[N+]([O-])c1ccc(CSc2ncnc3c2ncn3C2OC(CO)C(O)C2O)cc1` (centres unmarked) [NBMPR, nitrobenzylthioinosine]: the IC50 is greater than 1 µM.

The subject of the next experiment is CNT.
Experiment: not given
To be noted: Non-patent Reference 14; cited from earlier work.
Consider `Nc1ncnc2c1nc(Br)n2[C@@H]1O[C@H](CO)[C@@H](O)[C@H]1O` [8-bromoadenosine], for which the “inhibitory activity against CNT” value is on record as “weak inhibitory activity”.

Another experiment addresses T2, human CNT2 (Homo sapiens, UniProt O43868, I160M/P22L/S45C).
T2 construct: expressed in transfected cells; host or cells: COS-7 cells (RIKEN CELL BANK RCB0539), transient lipofection of a pCI-neo plasmid
T2 sequence (O43868 1-658 P22L/S45C/I160M): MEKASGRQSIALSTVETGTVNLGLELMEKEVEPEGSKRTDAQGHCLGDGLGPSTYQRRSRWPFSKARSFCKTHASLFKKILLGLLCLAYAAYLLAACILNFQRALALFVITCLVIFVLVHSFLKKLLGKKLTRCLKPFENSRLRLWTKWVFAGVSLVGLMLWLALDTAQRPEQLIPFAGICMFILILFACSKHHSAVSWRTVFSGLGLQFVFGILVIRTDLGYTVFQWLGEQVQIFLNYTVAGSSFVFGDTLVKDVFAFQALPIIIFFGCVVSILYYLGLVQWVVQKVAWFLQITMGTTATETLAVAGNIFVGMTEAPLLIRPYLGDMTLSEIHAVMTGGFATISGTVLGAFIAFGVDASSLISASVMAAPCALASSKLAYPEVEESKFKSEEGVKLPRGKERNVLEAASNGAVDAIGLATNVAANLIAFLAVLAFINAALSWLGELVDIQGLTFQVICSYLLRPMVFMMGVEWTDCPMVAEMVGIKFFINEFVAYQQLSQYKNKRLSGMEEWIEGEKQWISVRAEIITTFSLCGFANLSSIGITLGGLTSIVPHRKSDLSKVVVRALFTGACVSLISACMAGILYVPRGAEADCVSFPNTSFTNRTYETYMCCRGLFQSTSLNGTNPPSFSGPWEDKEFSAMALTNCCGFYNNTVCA
Briefly: Inhibitory activity against uptake of inosine through human CNT2. The experiment is classed as cell-based. To be noted: 14C-labeled inosine 10 μM, COS-7 cells transiently expressing human CNT2, 30 minutes at 37° C. The procedure:
Expression plasmid of human CNT2 was transfected into COS-7 cells (RIKEN CELL BANK RCB0539) by lipofection method. LIPOFECTAMINE 2000 (Invitrogen) was used as a lipofection reagent. COS-7 cells were diluted in D-MEM (Invitrogen) containing 10% fetal calf serum (Sanko Junyaku) at 5×10^5/1 mL, and seeded into collagen-coated 96-well plates (IWAKI) at 100 μL/well and cultured at 37° C. for 2 hours with 5% CO2 condition. For each well, 0.6 μL of LIPOFECTAMINE 2000 (Invitrogen) was diluted in 25 μL of OPTI-MEM (Invitrogen), and incubated for 7 minutes at room temperature (hereinafter referred to as Lipo 2000-OPTI). For each well, 0.3 μg of plasmid was diluted in 25 μL of OPTI-MEM (Invitrogen), and the solution was added to the Lipo 2000-OPTI and mixed gently and incubated for 30 minutes at room temperature, and was transferred 50 μL for each well to culture medium. The cells were incubated at 37° C. with 5% CO2 condition for 2 days, and used for the uptake assays.
An Uptake buffer was prepared by addition of a mixture of non-radioisotope labeled (WAKO) and ^14C-labeled (Muromachi Yakuhin) inosine at the final concentration of 10 μM into a buffer, pH7.4, containing 140 mM sodium chloride, 2 mM potassium chloride, 1 mM calcium chloride, 1 mM magnesium chloride, 10 mM HEPES 2-[4-(2-hydroxyethyl)-1-piperazinyl]ethane sulfonic acid, 5 mM tris(hydroxymethyl)aminomethane and 5 mM glucose. For measurement of basal uptake, Basal uptake measurement buffer, which contained 140 mM choline chloride instead of sodium chloride was prepared. In uptake assays, NBMPR was added to Uptake buffer and Basal uptake measurement buffer at the final concentration of […]. In the case of measurement of inhibitory activity of test compounds, test compounds were dissolved in dimethyl sulfoxide, and then appropriately diluted with Uptake buffer as to prepare Measurement buffers. After removing culture medium of human CNT2 transiently expressing cells, Pretreatment buffer (Basal uptake measurement buffer without inosine and glucose) was added to wells at 200 μL/well and incubated at 37° C. for 10 minutes. After repeating the same step again, Pretreatment buffer was removed and Measurement buffers and Basal uptake measurement buffer were added at 75 μL/well and incubated at 37° C. After incubation for 30 minutes, Measurement buffers and Basal uptake measurement buffer were removed, and the cells were washed with Washing buffer (Basal uptake measurement buffer with non-radioisotope labeled inosine at 10 μM) at 200 μL/well twice. The cells were solubilized with 0.2 mol/L sodium hydroxide at 75 μL/well, and the cell lysates were transferred into PicoPlates (Perkin Elmer). After mixing with 150 μL of MicroScint-40 (Perkin Elmer), radioactivity was measured by means of scintillation counter (Perkin Elmer). One hundred % was set to the difference between the uptake in the control group and the basal uptake, and the uptake of inosine at each test compound concentration was calculated. The test compound concentration inhibiting 50% uptake of inosine (IC50 value) was calculated using logit plot.
`CCN(CC)CCCOc1cc(CNc2nc3c(N)ncnc3n2[C@@H]2O[C@H](CO)[C@@H](O)[C@H]2O)ccc1-c1ccccc1` [Example 115, 8-[2-(3-Diethylaminopropoxy)biphenyl-4-ylmethylamino]-adenosine] came in with an IC50 of 0.378 µM. The same measure, in the same setting: for `CN(C)CCCOc1cccc(-c2ccc(CNc3nc4c(N)ncnc4n3[C@@H]3O[C@H](CO)[C@@H](O)[C@H]3O)cc2)c1` [Example 117] the value was 0.378 µM. Same read-out and setting: for `Nc1ncnc2c1nc(NCc1ccc(-c3ccccc3)c(OCCCN3CCCC3)c1)n2[C@@H]1O[C@H](CO)[C@@H](O)[C@H]1O` [Example 120] the value was 0.444 µM; for `Nc1ncnc2c1nc(NCc1ccc(-c3cccc(OCCCN4CCCCC4)c3)cc1)n2[C@@H]1O[C@H](CO)[C@@H](O)[C@H]1O` [Example 125], 0.528 µM; for `CCN(CCO)CCCOc1cc(CNc2nc3c(N)ncnc3n2[C@@H]2O[C@H](CO)[C@@H](O)[C@H]2O)ccc1-c1ccccc1` [Example 130], 0.223 µM. As for `Nc1ncnc2c1nc(NCc1ccc(-c3ccsc3)cc1)n2[C@@H]1O[C@H](CO)[C@@H](O)[C@H]1O` [Example 132], the IC50 was determined as 0.649 µM. Still for that read-out and setting: for `CCCNCCCOc1cc(CNc2nc3c(N)ncnc3n2[C@@H]2O[C@H](CO)[C@@H](O)[C@H]2O)ccc1-c1ccccc1` [Example 147] the value was 0.321 µM; for `NCCCOc1ccc(-c2cccc(CNc3nc4c(N)ncnc4n3[C@@H]3O[C@H](CO)[C@@H](O)[C@H]3O)c2)cc1` [Example 149], 0.176 µM.

`NCCCOc1cc(CNc2nc3c(N)ncnc3n2[C@@H]2O[C@H](CO)[C@@H](O)[C@@H]2O)ccc1-c1ccccc1` [Example 153] registered an IC50 of 1.61 µM. On the same count and under the same terms, for `NCCCOc1cccc(-c2ccc(CNc3nc4c(N)ncnc4n3[C@@H]3O[C@H](CO)[C@@H](O)[C@@H]3O)cc2)c1` [Example 154] the value was 7.15 µM.

Take `NCCCOc1cc(CNc2nc3c(N)ncnc3n2[C@H]2C[C@H](O)[C@@H](CO)O2)ccc1-c1ccccc1` [Example 155]: the IC50 was found to be 0.266 µM. `N=C(N)NCCCOc1cccc(-c2ccc(CNc3nc4c(N)ncnc4n3[C@@H]3O[C@H](CO)[C@@H](O)[C@H]3O)cc2)c1` [Example 157, 8-[3′-(3-Guanidinopropoxy)biphenyl-4-ylmethylamino]-adenosine] showed an IC50 of 0.234 µM. Compound `NC(=O)[C@H](Cc1ccc(O)cc1)NCCCOc1cccc(-c2ccc(CNc3nc4c(N)ncnc4n3[C@@H]3O[C@H](CO)[C@@H](O)[C@H]3O)cc2)c1` [Example 164] had an IC50 of 0.085 µM. In the case of `C[N+](C)(C)CCCOc1cccc(-c2ccc(CNc3nc4c(N)ncnc4n3[C@@H]3O[C@H](CO)[C@@H](O)[C@H]3O)cc2)c1` [Example 167], inhibition was half-maximal at 0.412 µM (IC50). The compound `CN(C)CCCOc1cccc(-c2ccc(CCNc3nc4c(N)ncnc4n3[C@@H]3O[C@H](CO)[C@@H](O)[C@H]3O)cc2)c1` [Example 171] gave an IC50 of 2.43 µM.
